Test results taken from publication PMC9031804, “The Peptide-Drug Conjugate TH1902: A New Sortilin Receptor-Mediated Cancer Therapeutic against Ovarian and Endometrial Cancers” (Cancers, 2022).

How the values were obtained:
[1] = test system: SKOV3 ovarian cancer xenografts; experiment: SKOV3 ovarian cancer xenograft tumor growth; assay type: in vivo, human tumor in female athymic nude mice; settings: for Tumor progression, Size Increase (x-Fold Day-0): vehicle endpoint Day 28, n = 6 mice/group
Text: (§1) Animals were obtained from Charles River Laboratories, Inc. and allowed to acclimate for 5 days before experiments. Female CD-1 nude mice (Crl:CD1-Foxn1^nu, 4–6 weeks old; ES-2) or athymic nude mice (Crl:NU(NCr)-Foxn1^nu, 4–6 weeks old; SKOV3, A2780, AN3-CA) were used for the xenograft tumor models. Mice were maintained in a pathogen-free environment and handled in accordance with the Guidelines of the Canadian Council on Animal Care. Animal protocols were approved by the Institutional Animal Care and Use Committee of Université du Québec à Montréal (0620-C1R1-897-0621).
(§2) Tumor xenografts were established by subcutaneous inoculation of 5 × 10^6 cells (ES-2) or 7 × 10^6 cells (SKOV3) in 150 µL of HBSS; other xenografts were established by subcutaneous inoculation of 5 × 10^6 cells (A2780) or 2 × 10^6 cells (AN3-CA) in 150 µL of HBSS/Matrigel (50:50). All cells were injected into the right flanks of immunodeficient mice under light isoflurane anesthesia. The injection schedules and doses of injected substances are detailed in the figures. Briefly, when palpable ES-2, SKOV3 or AN3-CA tumors reached a volume of ~100 mm^3, mice were treated weekly with either vehicle, docetaxel (3.75 or 15 mg/kg) or TH1902 (8.75 or 35 mg/kg) at equivalent docetaxel amounts via intravenous (IV) tail vein injection. Note that three cycles of 15 mg/kg docetaxel is the maximum tolerated dose in mice and that 35 mg/kg TH1902 contains the same quantity of docetaxel (bis-linked to the peptide). In A2780 xenografts, when palpable tumors reached a volume of ~250 mm^3, mice were treated with either vehicle, paclitaxel (10 mg/kg, IV), carboplatin (40 mg/kg, intraperitoneal (IP)), docetaxel (10 mg/kg, IV) or TH1902 (23 mg/kg, IV) bi-weekly as single agents or once on Day-0 as combinations with carboplatin. […] Tumor growth was monitored by two-dimensional measurements taken with an electronic caliper and tumor volume was calculated according to the following formula: tumor volume (mm^3) = π/6 × length × width^2. Data are expressed as mean ± SEM and were analyzed using GraphPad Prism software.
(§3) Figure 6 Effects of docetaxel and TH1902 on ES-2 and SKOV3 ovarian cancer xenografts. […] Immunodeficient mice bearing subcutaneous ES-2 (A) or SKOV3 (B) tumors were intravenously injected weekly with either vehicle, docetaxel (at its MTD and quarter MTD doses; 15 and 3.75 mg/kg, respectively), or TH1902 (at a dosage which contains a quantity of bound docetaxel equal to the docetaxel doses; 35 and 8.75 mg/kg, respectively), as described in the methods section. Mice in the ES-2 study were euthanized at vehicle group endpoint (Day 18), whereas indicated groups in SKOV3 study were monitored for a prolonged period up to Day 46 post start of treatments.

[2] = Mice weights, SKOV3 xenograft study; assay type: in vivo; settings: docetaxel 15 mg/kg, three weekly cycles
Procedure: as §2, with “peptide).” for “peptide). In A2780 xenografts, when palpable tumors reached a volume of ~250 mm^3, mice were treated with either vehicle, paclitaxel (10 mg/kg, IV), carboplatin (40 mg/kg, intraperitoneal (IP)), docetaxel (10 mg/kg, IV) or TH1902 (23 mg/kg, IV) bi-weekly as single agents or once on Day-0 as combinations with carboplatin.”, “software. […]” for “software.”

[3] = test system: A2780 cells; experiment: Cell proliferation, MTT assay, A2780; assay type: cell-based; settings: Homo sapiens, 72 h, mean ± SD, n = 3 to 5, read-out: IC50, anti-proliferative activity
Procedure: (§4) To assess the effects of docetaxel and TH1902 on ovarian and endometrial cancer cell proliferation, cells (ES-2: 3000 cells/well, SKOV3: 1000 cells/well, A2780: 7000 cells/well, AN3-CA: 7000 cells/well) were first seeded in 96-well plates (Perkin Elmer, Guelph, ON, Canada), then treated with various concentrations of drugs in complete cell culture medium. After 72 h of incubation for ES-2, A2780 and AN3-CA cells, or 96 h for SKOV3 cells, cell proliferation was measured using the 3-(4,5-dimethylthiazol-2-yl)-2,5-diphenyltetrazolium bromide (MTT) as described previously. Analyses were made in quadruplicate for each condition.

[4] = test system: SKOV3 cells; experiment: Cell proliferation, MTT assay, SKOV3; assay type: cell-based; settings: Homo sapiens, SK-OV-3, 96 h, mean ± SD, n = 3 to 5, read-out: IC50, anti-proliferative activity
Procedure: as §4

[5] = ref [38]; cited from earlier work
Text: Taxanes, mainly paclitaxel and docetaxel, are well-known microtubule stabilizers used in various cancer including ovarian and endometrial cancer first-line therapies in the last thirty years. […] Here, the new chemical entity TH1902 is distinct from the docetaxel molecule as it selectively exploits SORT1’s internalization properties to trigger cell apoptosis in ES-2 and ...

[6] = test system: ES-2 ovarian cancer xenografts; experiment: ES-2 ovarian cancer xenograft tumor growth; assay type: in vivo, human tumor in female CD-1 nude mice; settings: for Tumor progression, Size Increase (x-Fold Day-0): vehicle group endpoint Day 18, n = 6 mice/group
Text: as §1
Tumor xenografts were established by subcutaneous inoculation of 5 × 10^6 cells (ES-2) or 7 × 10^6 cells (SKOV3) in 150 µL of HBSS; other xenografts were established by subcutaneous inoculation of 5 × 10^6 cells (A2780) or 2 × 10^6 cells (AN3-CA) in 150 µL of HBSS/Matrigel (50:50). All cells were injected into the right flanks of immunodeficient mice under light isoflurane anesthesia. The injection schedules and doses of injected substances are detailed in the figures. […] Note that three cycles of 15 mg/kg docetaxel is the maximum tolerated dose in mice and that 35 mg/kg TH1902 contains the same quantity of docetaxel (bis-linked to the peptide). […] Tumor growth was monitored by two-dimensional measurements taken with an electronic caliper and tumor volume was calculated according to the following formula: tumor volume (mm^3) = π/6 × length × width^2. Data are expressed as mean ± SEM and were analyzed using GraphPad Prism software.
as §3, with “Mice in the ES-2 study were euthanized at vehicle group endpoint (Day 18), whereas indicated groups in SKOV3 study were monitored for a prolonged period up to Day 46 post start of treatments.” left out

[7] = test system: ES-2 cells; experiment: Cell proliferation, MTT assay, ES-2; assay type: cell-based; settings: Homo sapiens, 72 h, mean ± SD, n = 3 to 5, read-out: IC50, anti-proliferative activity
Procedure: as §4

[8] = Mice weights, AN3-CA xenograft study; assay type: in vivo; settings: docetaxel high dose 15 mg/kg, reversed when dosage was halved
Procedure: as §2, with “peptide).” for “peptide). In A2780 xenografts, when palpable tumors reached a volume of ~250 mm^3, mice were treated with either vehicle, paclitaxel (10 mg/kg, IV), carboplatin (40 mg/kg, intraperitoneal (IP)), docetaxel (10 mg/kg, IV) or TH1902 (23 mg/kg, IV) bi-weekly as single agents or once on Day-0 as combinations with carboplatin.”, “software. […]” for “software.”

[9] = test system: A2780 ovarian cancer xenografts; experiment: A2780 ovarian cancer xenograft tumor growth; assay type: in vivo, human tumor in female athymic nude mice; settings: for Tumor progression, Size Increase (x-Fold Day-0): vehicle group endpoint, n = 5 mice/group
Text: as §1
(§5) Tumor xenografts were established by subcutaneous inoculation of 5 × 10^6 cells (ES-2) or 7 × 10^6 cells (SKOV3) in 150 µL of HBSS; other xenografts were established by subcutaneous inoculation of 5 × 10^6 cells (A2780) or 2 × 10^6 cells (AN3-CA) in 150 µL of HBSS/Matrigel (50:50). All cells were injected into the right flanks of immunodeficient mice under light isoflurane anesthesia. The injection schedules and doses of injected substances are detailed in the figures. Briefly, when palpable ES-2, SKOV3 or AN3-CA tumors reached a volume of ~100 mm^3, mice were treated weekly with either vehicle, docetaxel (3.75 or 15 mg/kg) or TH1902 (8.75 or 35 mg/kg) at equivalent docetaxel amounts via intravenous (IV) tail vein injection. Note that three cycles of 15 mg/kg docetaxel is the maximum tolerated dose in mice and that 35 mg/kg TH1902 contains the same quantity of docetaxel (bis-linked to the peptide). In A2780 xenografts, when palpable tumors reached a volume of ~250 mm^3, mice were treated with either vehicle, paclitaxel (10 mg/kg, IV), carboplatin (40 mg/kg, intraperitoneal (IP)), docetaxel (10 mg/kg, IV) or TH1902 (23 mg/kg, IV) bi-weekly as single agents or once on Day-0 as combinations with carboplatin. For combination treatments, both taxanes and TH1902 were injected 1 h following carboplatin administrations at the doses previously described. Injectable solutions were prepared as follows: TH1902 was solubilized at 10 mg/mL in 10% Tween-80 in D5W (pH 4.3, w/v) then further diluted with D5W; docetaxel was solubilized at 25 mg/mL in ethanol and Tween-80 (50/50, v/v) then further diluted with D5W; paclitaxel was solubilized at 25 mg/mL in ethanol and Cremophor EL (50/50, v/v) then further diluted in saline; carboplatin was solubilized at 50 mg/mL in water then further diluted in a solution of 30% PEG400 and 5% Tween-80 in D5W (w/v); vehicle composition and preparation mimicked highest dose of TH1902 preparation. Tumor growth was monitored by two-dimensional measurements taken with an electronic caliper and tumor volume was calculated according to the following formula: tumor volume (mm^3) = π/6 × length × width^2. Data are expressed as mean ± SEM and were analyzed using GraphPad Prism software.
Figure 8 Effects of TH1902 and carboplatin combinations on A2780 ovarian cancer xenografts. A2780 cells were subcutaneously implanted in the flanks of athymic nude mice. Tumor volume measurements following bi-weekly administrations of (A) vehicle, docetaxel, TH1902, paclitaxel or carboplatin as single agents, or (B) administered once in combination using the same dosage as described in the methods section. Colored dots below indicate drug treatments for all groups. Data are represented as mean ± SEM (n = 5 mice/group).

[10] = mice; three (weekly) cycles; ref [31]; cited from earlier work
[11] = Mice weights, A2780 xenograft study; assay type: in vivo; settings: docetaxel 10 mg/kg IV, three cycles
Procedure: as §2, with “peptide).” for “peptide). In A2780 xenografts, when palpable tumors reached a volume of ~250 mm^3, mice were treated with either vehicle, paclitaxel (10 mg/kg, IV), carboplatin (40 mg/kg, intraperitoneal (IP)), docetaxel (10 mg/kg, IV) or TH1902 (23 mg/kg, IV) bi-weekly as single agents or once on Day-0 as combinations with carboplatin.”, “software. […]” for “software.”

[12] = test system: AN3-CA endometrial cancer xenografts; experiment: AN3-CA endometrial cancer xenograft tumor growth; assay type: in vivo, human tumor in female athymic nude mice; settings: for Tumor progression, Size Increase (x-Fold Day-0): vehicle group endpoint Day 14, n = 6 mice/group
Text: as §1, §5

[13] = Mice weights, ES-2 xenograft study; assay type: in vivo; settings: ES-2 study
[14] = single agent 10 mg/kg IV bi-weekly
[15] = single agent 40 mg/kg IP bi-weekly

Structure (SMILES): CC(=O)O[C@@]12CO[C@@H]1C[C@H](O)[C@@]1(C)C(=O)[C@H](O)C3=C(C)[C@@H](OC(=O)[C@H](O)[C@@H](NC(=O)OC(C)(C)C)c4ccccc4)C[C@@](O)([C@@H](OC(=O)c4ccccc4)[C@H]21)C3(C)C [Docetaxel, docetaxel]
- Tumor progression, Size Increase (x-Fold Day-0) ([1]; docetaxel 3.75 mg/kg IV weekly): 9.70 x-Fold Day-0
- Tumor progression, Size Increase (x-Fold Day-0) ([1]; docetaxel 15 mg/kg IV weekly): 2.25 x-Fold Day-0
- Tumor regrowth on prolonged monitoring ([1]; docetaxel high dose 15 mg/kg, prolonged monitoring): could not sustain this effect, which is marked by tumor regrowth
- Tumor growth inhibition ([1]; docetaxel high dose 15 mg/kg, vs vehicle endpoint Day 28): 84%
- Body weight loss [2]: > 10%
- Body weight loss, in words [2]: severe weight loss
- IC50 [3]: 1.76 ± 0.38 nM
- IC50 [4]: 0.61 ± 0.1 nM
- Water solubility [5]: very poor water solubility
- Tumor progression, Size Increase (x-Fold Day-0) ([6]; docetaxel 3.75 mg/kg IV weekly): 10.08 x-Fold Day-0
- Tumor progression, Size Increase (x-Fold Day-0) ([6]; docetaxel 15 mg/kg IV weekly): 8.31 x-Fold Day-0
- Effect on tumor growth ([6]; docetaxel, both 3.75 and 15 mg/kg IV weekly): produced little effect
- IC50 [7]: 2.24 ± 0.99 nM
- Body weight loss, in words [8]: Rapid weight loss
- Tumor growth inhibition [9, 14]: 43%
- Tumor progression, Size Increase (x-Fold Day-0) [9, 14]: 4.13 x-Fold Day-0
- Maximum tolerated dose [10]: 15 mg/kg
- Body weight loss, in words [11]: significant body weight loss
- Tumor progression, Size Increase (x-Fold Day-0) ([12]; docetaxel 3.75 mg/kg IV weekly): 12.07 x-Fold Day-0
- Tumor progression, Size Increase (x-Fold Day-0) ([12]; docetaxel 15 mg/kg IV weekly): 0.79 x-Fold Day-0
- Tumor response on prolonged monitoring ([12]; docetaxel high dose 15 mg/kg (halved for final two treatments), before end of treatments): unresponsive and regrew before the end of treatments
- Tumor regression ([12]; docetaxel high dose 15 mg/kg, vs vehicle endpoint): induced tumor regressions
- Tolerability / body weight ([13]; docetaxel high dose 15 mg/kg, three weekly cycles, vs initial weight): small weight loss
- Tolerability / body weight ([13]; docetaxel low dose 3.75 mg/kg weekly): well-tolerated with slight weight gain

Structure (SMILES): N.N.O=C([O-])C1(C(=O)[O-])CCC1.[Pt+2] [Carboplatin, carboplatin]
- Tumor growth inhibition [9, 15]: 38%
- Tumor progression, Size Increase (x-Fold Day-0) [9, 15]: 4.21 x-Fold Day-0
